# Target: T1, glutaminase (GAC) (Homo sapiens, UniProt O94925)
# T1 sequence (O94925 55-598 isoform O94925-3 limits assumed): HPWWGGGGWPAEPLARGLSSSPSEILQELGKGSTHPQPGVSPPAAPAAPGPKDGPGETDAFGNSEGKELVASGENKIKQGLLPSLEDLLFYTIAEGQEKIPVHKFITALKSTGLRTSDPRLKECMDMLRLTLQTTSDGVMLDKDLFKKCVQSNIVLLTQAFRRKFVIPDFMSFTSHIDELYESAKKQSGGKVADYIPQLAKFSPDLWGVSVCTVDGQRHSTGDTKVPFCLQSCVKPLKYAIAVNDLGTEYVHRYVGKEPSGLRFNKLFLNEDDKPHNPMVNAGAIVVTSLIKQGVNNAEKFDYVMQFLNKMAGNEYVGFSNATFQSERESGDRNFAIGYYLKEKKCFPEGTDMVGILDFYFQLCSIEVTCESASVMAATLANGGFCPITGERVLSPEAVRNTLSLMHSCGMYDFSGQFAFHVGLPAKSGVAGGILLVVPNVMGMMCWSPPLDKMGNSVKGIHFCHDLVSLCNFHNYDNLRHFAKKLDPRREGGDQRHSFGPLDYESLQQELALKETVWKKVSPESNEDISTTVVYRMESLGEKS
# Assay: Glutaminase coupled endpoint enzymatic assay (Example A)
# Type: biochemical
# Settings: inhibition of glutaminase; assay of Example A or Example B
# Method in brief: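 Endpoint coupled assay: glutamate formed by GAC drives GDH NADH production, recycled by diaphorase reducing resazurin to fluorescent resorufin (Ex544/Em590) after SDS stop. Buffer pH 8.5 with phosphate; glutamine at Km; enzyme preincubated with compound 60 min at room temperature.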
row,IC50 [nM],SMILES
1,100 to 500,"CC(=O)Nc1nnc([C@H]2CCC[C@H](c3nnc(NC(=O)Cc4ccc(N5CC(F)(F)C5)cn4)s3)C2)s1 [Compound 253, N-(5-((1S,3S)-3-(5-acetamido-1,3,4-thiadiazol-2-yl)cyclohexyl)-1,3,4-thiadiazol-2-yl)-2-(5-(3,3-difluoroazetidin-1-yl)pyridin-2-yl)acetamide]"
2,500 to 1000,"CCN(CC)c1cccc(CC(=O)Nc2nnc([C@H]3CCC[C@H](c4nnc(NC(=O)Cc5cccc(N(CC)CC)c5)s4)C3)s2)c1 [Compound 235, N,N′-(5,5′-((1S,3S)-cyclohexane-1,3-diyl)bis(1,3,4-thiadiazole-5,2-diyl))bis(2-(3-(diethylamino)phenyl)acetamide)]"
3,< 100,O=C(Cc1ccccn1)Nc1nnc([C@@H]2CC[C@@H](c3nnc(NC(=O)Cc4ccccn4)s3)C2)s1 [Compound 33]
4,< 100,"O=C(Cc1cscn1)Nc1nnc([C@H]2CCC[C@H](c3nnc(NC(=O)Cc4cscn4)s3)C2)s1 [Compound 222, N,N′-(5,5′-((1S,3S)-cyclohexane-1,3-diyl)bis(1,3,4-thiadiazole-5,2-diyl))bis(2-(thiazol-4-yl)acetamide)]"
5,< 100,"Nc1ccc(CC(=O)Nc2nnc([C@H]3CCC[C@H](c4nnc(NC(=O)Cc5ccc(N)cc5)s4)C3)s2)cc1 [Compound 239, N,N′-(5,5′-((1S,3S)-cyclohexane-1,3-diyl)bis(1,3,4-thiadiazole-5,2-diyl))bis(2-(4-aminophenyl)acetamide)]"
6,100 to 500,"O=C(Cc1ccccc1)Nc1nnc(CC2CC(Cc3nnc(NC(=O)Cc4ccccc4)s3)C2)s1 (stereo not shown) [Compound 8, N,N′-(5,5′-(cyclobutane-1,3-diylbis(methylene))bis(1,3,4-thiadiazole-5,2-diyl))bis(2-phenylacetamide)]"
7,2000 to 10000,"O=C(Cc1ccccn1)Nc1nnc(CC2CCC(Cc3nnc(NC(=O)Cc4ccccn4)s3)C2)s1 (stereo not shown) [Compound 4, N,N′-(5,5′-(cyclopentane-1,3-diylbis(methylene))bis(1,3,4-thiadiazole-5,2-diyl))bis(2-(pyridin-2-yl)acetamide)]"
8,1000 to 2000,"O=C(Cc1ccccc1)Nc1nnc([C@@H]2CC[C@H](c3nnc(NC(=O)Cc4ccccc4)s3)C2)s1 [Compound 18, N,N′-(5,5′-((1R,3S)-cyclopentane-1,3-diyl)bis(1,3,4-thiadiazole-5,2-diyl))bis(2-phenylacetamide)]"
9,< 100,COc1ccnc(CC(=O)Nc2nnc([C@H]3CC[C@H](c4nnc(NC(=O)Cc5cc(OC)ccn5)s4)C3)s2)c1 [Compound 287]
10,< 100,"COc1cccc(CC(=O)Nc2nnc([C@H]3CCC[C@H](c4nnc(NC(=O)Cc5ccccn5)s4)C3)s2)c1 [Compound 81, 2-(3-methoxyphenyl)-N-(5-((1S,3S)-3-(5-(2-(pyridin-2-yl)acetamido)-1,3,4-thiadiazol-2-yl)cyclohexyl)-1,3,4-thiadiazol-2-yl)acetamide]"
11,< 100,"Nc1ccc(CC(=O)Nc2nnc([C@H]3CCC[C@H](c4nnc(NC(=O)Cc5ccc(N)cn5)s4)C3)s2)nc1 [Compound 233, N,N′-(5,5′-((1S,3S)-cyclohexane-1,3-diyl)bis(1,3,4-thiadiazole-5,2-diyl))bis(2-(5-aminopyridin-2-yl)acetamide)]"
12,1000 to 2000,"O=C(Cc1ccccn1)Nc1nnc([C@@H]2CCC[C@H](c3nnc(NC(=O)Cc4ccccn4)s3)C2)s1 [Compound 20, N,N′-(5,5′-((1R,3S)-cyclohexane-1,3-diyl)bis(1,3,4-thiadiazole-5,2-diyl))bis(2-(pyridin-2-yl)acetamide)]"
13,< 100,"O=C(Cc1cccc(N2CCNCC2)c1)Nc1nnc([C@H]2CCC[C@H](c3nnc(NC(=O)Cc4cccc(N5CCNCC5)c4)s3)C2)s1 [Compound 263, N,N′-(5,5′-((1S,3S)-cyclohexane-1,3-diyl)bis(1,3,4-thiadiazole-5,2-diyl))bis(2-(3-(piperazin-1-yl)phenyl)acetamide)]"
14,100 to 500,O=C(Cc1cccc(N2CC(F)(F)C2)c1)Nc1nnc([C@H]2CCC[C@H](c3nnc(NC(=O)Cc4cccc(N5CC(F)(F)C5)c4)s3)C2)s1 [Compound 269]
15,< 100,"COc1ccccc1CC(=O)Nc1nnc([C@H]2CCC[C@H](c3nnc(NC(=O)Cc4ccccn4)s3)C2)s1 [Compound 79, 2-(2-methoxyphenyl)-N-(5-((1S,3S)-3-(5-(2-(pyridin-2-yl)acetamido)-1,3,4-thiadiazol-2-yl)cyclohexyl)-1,3,4-thiadiazol-2-yl)acetamide]"
16,< 100,"N#Cc1cccc(CC(=O)Nc2nnc([C@H]3CCC[C@H](c4nnc(NC(=O)Cc5cccc(C#N)n5)s4)C3)s2)n1 [Compound 229, N,N′-(5,5′-((1S,3S)-cyclohexane-1,3-diyl)bis(1,3,4-thiadiazole-5,2-diyl))bis(2-(6-cyanopyridin-2-yl)acetamide)]"
17,< 100,"COc1ccccc1CC(=O)Nc1nnc([C@H]2CCC[C@H](c3nnc(NC(C)=O)s3)C2)s1 [Compound 94, N-(5-((1S,3S)-3-(5-acetamido-1,3,4-thiadiazol-2-yl)cyclohexyl)-1,3,4-thiadiazol-2-yl)-2-(2-methoxyphenyl)acetamide]"
18,1000 to 2000,O=C(Cc1ccccc1)Nc1nnc(C2CCCC(c3nnc(NC(=O)Cc4ccccc4)s3)C2)s1 (stereo not shown) [Compound 36]
19,< 100,"O=C(Cc1c[nH]cn1)Nc1nnc([C@H]2CCC[C@H](c3nnc(NC(=O)Cc4c[nH]cn4)s3)C2)s1 [Compound 273, N,N′-(5,5′-((1S,3S)-cyclohexane-1,3-diyl)bis(1,3,4-thiadiazole-5,2-diyl))bis(2-(1H-imidazol-4-yl)acetamide)]"
20,100 to 500,"CN(C)c1cccc(CC(=O)Nc2nnc([C@H]3CC[C@H](c4nnc(NC(=O)Cc5cccc(N(C)C)n5)s4)C3)s2)n1 [Compound 289, N,N′-(5,5′-((1S,3S)-cyclopentane-1,3-diyl)bis(1,3,4-thiadiazole-5,2-diyl))bis(2-(6-(dimethylamino)pyridin-2-yl)acetamide)]"
21,100 to 500,N#Cc1ccc(CC(=O)Nc2nnc(C3CCC(c4nnc(NC(=O)Cc5ccc(C#N)cc5)s4)C3)s2)cc1 (stereo not shown) [Compound 96]
22,< 100,"NCc1ccc(CC(=O)Nc2nnc([C@H]3CCC[C@H](c4nnc(NC(=O)Cc5ccc(CN)cc5)s4)C3)s2)cc1 [Compound 246, N,N′-(5,5′-((1S,3S)-cyclohexane-1,3-diyl)bis(1,3,4-thiadiazole-5,2-diyl))bis(2-(4-(aminomethyl)phenyl)acetamide)]"
